The subject of assay [1] is BMDMs. As to the kind of experiment: JE on TNF-α and IL-6 secretion by BMDMs upon LPS and TLR agonists. The format is cell-based, mouse. The method, then:
FIG. 16. The Effect of JE on TNF-α Secretion by BMDMs in Response to Stimulation by Different Concentrations of LPS. BMDMs were isolated and cultured, as mentioned before. Macrophages were incubated overnight with JE at a concentration of 50 μM at 37° C., 5% CO2. The next day, they were stimulated with two-fold dilutions of LPS at a starting concentration of 5 ng/ml for 3 hours. Supernatants were collected, and TNF-α was measured using ELISA. Data are presented as mean±SEM (n=6). *p<0.05; **p<0.01; ***p<0.001. One of two experiments is shown.
FIG. 17. The Effect of JE on IL-6 Secretion by BMDMs in Response to Stimulation by Different Concentrations of LPS. BMDMs were isolated and cultured as described above. Macrophages were incubated overnight with JE at a concentration of 50 μM at 37° C., 5% CO2. The next day, they were stimulated with two-fold dilutions of LPS at a starting concentration of 5 ng/ml for 3 hours. Supernatants were collected, and IL-6 was measured using ELISA. Data are presented as mean±SEM (n=6). *p<0.05; **p<0.01; ***p<0.001. One of two experiments is shown.
FIG. 18. The Effect of JE on TNF-α Secretion by BMDMs in Response to Stimulation by TLR Agonists. BMDMs were isolated and cultured as described above. Macrophages were incubated overnight with JE at a concentration of 50 μM at 37° C., 5% CO2. The following day, they were stimulated with 1 μg/ml of FLG-ST, […] of ODN, 50 μg/ml of Poly: IC, 3 μg/ml of Imiquimod, 3 μg/ml and 1.5 μg/ml of PAM-3SCk, 1 μg/ml of FSL-1 for 3 hours. Supernatants were collected, and TNF-α was measured using ELISA. Data are presented as mean±SEM (n=6). *p<0.05; **p<0.01; ***p<0.001. One of three experiments is shown.
Murine macrophages, both RAW 264.7 macrophages and bone marrow-derived macrophages (BMDMs), were seeded and then pretreated overnight with the metabolite JE. The following day, the macrophages were stimulated with one of TLR agonists, including LPS, FLA-ST, ODN, Pam3SCK4, Poly: IC LMW, FSL, and Imiquimod for 3 hours, then the production of TNF-α, and IL-6 in the culture supernatants was measured by ELISA.
Therefore, I stimulated them with two-fold dilution of the concentration I used to stimulate RAW 264.7. […] On the other hand, JE could reduce IL-6 secretion by BMDMs at 5 ng/ml of LPS as depicted in FIG. 17.
Similar to treatment of RAW 264.7 macrophages with TLR agonists, I pretreated BMDMs with JE then stimulated them with FLG, ODN, PIC, Imiquimod, PAM-3SCK, and FSL-1. […] After 3 hours, Supernatants were collected, TNF-α and IL-6 were quantified by ELISA.

For assay [2], the system named is phosphorylated NFκB (ser536). As to the kind of experiment: NC on phospho-NFκB (ser536) levels in stimulated Raw 264.7 macrophages. The format is cell-based, mouse. As to the method:
FIG. 31. Compound NC on phospho-NFκB (ser536) levels in stimulated macrophages. Raw 264.7 macrophages were incubated with 50 μM of NC for 18 hours prior to stimulation with LPS or Poly I:C. Whole cell lysates were collected after 2 hours and the level of phosphorylated NFκB (Phosphoserine 536) was quantified for endpoint absorbance at […] and normalized to absorbance of untreated, unstimulated cells. Mean and p values were computed using R base and dplyr packages using normalized values.
TRIF can participate in TNFα signaling through two distinct mechanisms. Firstly, TRIF can signal NFκB through TRAF6 to increase TNFα transcription. Secondly, TRIF activation can enhance the translation of TNFα mRNA through prolonged MK-2 activation. To determine whether NC reduces TNFα release by blocking TNFα transcription or translation, we collected cell lysates and quantified the levels of phosphorylated NFκB (ser536). Lysates of Raw 264.7 cells treated with NC prior to stimulation with LPS or Poly I:C contained more phosphorylated NFκB (ser536) than untreated cells (FIG. 31). There was no difference in phosphorylated NFκB (ser536) in unstimulated cells treated with NC.

Take `CC(=O)O[C@@H]1CC[C@H]2[C@H]3CC[C@H]4CC(F)(F)CC[C@]4(C)[C@H]3CC[C@]12C` [JE, 3,3-Difluoro-5-alpha-androstan-17-beta-yl acetate]: the TNF-α secretion result was “Significant inhibition” in assay [1] (JE 50 μM overnight, LPS 0.6 ng/ml 3 hours) and “Significant inhibition” in assay [1] (JE 50 μM overnight, LPS 1.25 ng/ml 3 hours). In addition, in assay [1] (JE 50 μM overnight, LPS 5 ng/ml 3 hours), the IL-6 secretion entry is given as “could reduce”. Besides, the “TNF-α secretion upon stimulation with TLR agonists” value in assay [1] (JE 50 μM overnight, FLG, ODN, PIC, Imiquimod, PAM-3SCK, FSL-1, 3 hours) was “decreased”. Further, in assay [1] (JE 50 μM overnight, TLR agonists 3 hours), the “IL-6 secretion upon stimulation with TLR agonists” value was “decreased”. Also, the IL-6 production entry in assay [1] (JE, LPS 10 ng/ml) is “failed to decrease”. In addition, the TNF-α production entry in assay [1] (JE, LPS 10 ng/ml) is listed as “failed to decrease”; in assay [1] (ODN and PAM-3SCK, previous experiment before two-fold dilutions) it was “did not significantly reduce”.
As to `CCCCCCCCCCCCCCCC(=O)N[C@@H](C(=O)O)[C@H](C)O` [NC, N-Palmitoyl-D-Threonine], the “phosphorylated NFκB (ser536) level” value was “more and significantly decreases” in assay [2] (50 μM NC 18 hours, LPS, lysates after 2 hours); “more and significantly decreases” in assay [2] (50 μM NC 18 hours, Poly I:C, lysates after 2 hours); “no difference” in assay [2] (NC, unstimulated cells).

The values above are taken from patent US20250000874A1, “BACTERIAL METABOLITES AND THEIR USE IN REDUCING INFLAMMATION” (LOYOLA UNIVERSITY OF CHICAGO, priority 2023, published 2025).
